According to patent US12692254B2, “Benzimidazole inhibitors of PAD enzymes” (BRISTOL-MYERS SQUIBB COMPANY, priority 2018, dated 2026):

molecular target: human PAD4 (hPAD4) (Homo sapiens, UniProt Q9UM07); experiment: RFMS human PAD4 functional assay (rapid-fire mass spectrum); type: biochemical; details: 5 nM hPAD4 enzyme, 250 μM BAEE, 50 μM Calcium; 30 min preincubation, 90 min reaction at 37° C.
In short: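 PAD4 (10 nM) preincubated 30 min with compound (top final 50 μM), then BAEE substrate added in pH 7.5 HEPES buffer with DTT, 50 μM calcium, TPEN; 90 min at 37° C. After TCA quench, citrulline derivatized with phenyl glyoxal (4 mM final, 30 min, 37° C) and quantified by RapidFire MS against internal standard.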

Sequence of human PAD4 (hPAD4) (Q9UM07 whole entry): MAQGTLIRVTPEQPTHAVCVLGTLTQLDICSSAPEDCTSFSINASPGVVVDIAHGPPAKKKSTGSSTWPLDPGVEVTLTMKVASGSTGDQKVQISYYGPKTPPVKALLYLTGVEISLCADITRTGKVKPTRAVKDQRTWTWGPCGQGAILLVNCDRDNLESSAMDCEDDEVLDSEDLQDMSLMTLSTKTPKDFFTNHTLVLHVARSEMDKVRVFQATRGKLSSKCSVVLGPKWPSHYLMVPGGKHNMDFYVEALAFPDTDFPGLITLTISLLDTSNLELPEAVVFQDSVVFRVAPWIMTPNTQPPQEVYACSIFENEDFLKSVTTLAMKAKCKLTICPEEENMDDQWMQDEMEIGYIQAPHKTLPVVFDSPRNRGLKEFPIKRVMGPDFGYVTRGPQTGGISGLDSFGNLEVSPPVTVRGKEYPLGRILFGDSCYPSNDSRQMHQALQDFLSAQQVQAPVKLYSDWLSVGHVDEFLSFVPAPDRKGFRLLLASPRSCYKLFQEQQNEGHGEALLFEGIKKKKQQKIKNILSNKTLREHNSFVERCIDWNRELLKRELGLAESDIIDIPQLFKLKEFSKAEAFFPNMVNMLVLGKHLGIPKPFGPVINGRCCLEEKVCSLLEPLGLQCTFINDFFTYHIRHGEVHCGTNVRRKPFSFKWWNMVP

Row | IC50 [nM] | SMILES
1 | 102 | COc1cc(C(=O)N2CC3CCC2[C@@H]3N)cc2nc(-c3cc4cccnc4n3CC3CC3)n(Cc3ccnn3C)c12 (stereo partly drawn) [Example 496, (7R)-2-{2-[1-(cyclopropylmethyl)-1H-pyrrolo[2,3-b]pyridin-2-yl]-7-methoxy-1-[(1-methyl-1H-pyrazol-5-yl)methyl]-1H-1,3-benzodiazole-5-carbonyl}-2-azabicyclo[2.2.1]heptan-7-amine]
2 | 884 | COc1cc(C(=O)N2C[C@H]3CC[C@@H]2[C@@H]3N)cc2nc(-c3cc4cccnc4n3CC3CC3)n(C3CN(C(C)=O)C3)c12 [Example 191, 1-(3-{5-[(1R,4R,7R)-7-amino-2-azabicyclo[2.2.1]heptane-2-carbonyl]-2-[1-(cyclopropylmethyl)-1H-pyrrolo[2,3-b]pyridin-2-yl]-7-methoxy-1H-1,3-benzodiazol-1-yl}azetidin-1-yl)ethan-1-one]
3 | 163 | COc1cc(C(=O)N2C[C@H]3CC[C@@H]2[C@@H]3N)cc2nc(-c3cc4cccnc4n3CC3CC3)n(CC3CN(S(=O)(=O)C(F)(F)F)C3)c12 [Example 325, (1R,4R,7R)-2-{2-[1-(cyclopropylmethyl)-1H-pyrrolo[2,3-b]pyridin-2-yl]-7-methoxy-1-[(1-trifluoromethanesulfonylazetidin-3-yl)methyl]-1H-1,3-benzodiazole-5-carbonyl}-2-azabicyclo[2.2.1]heptan-7-amine]
4 | 57 | Cn1cc(Cn2c(-c3cc4cccnc4n3CC3CC3)nc3cc(C(=O)N4CC5CCC4[C@@H]5N)cc(F)c32)cn1 (stereo partly drawn) [Example 491, (7R)-2-{2-[1-(cyclopropylmethyl)-1H-pyrrolo[2,3-b]pyridin-2-yl]-7-fluoro-1-[(1-methyl-1H-pyrazol-4-yl)methyl]-1H-1,3-benzodiazole-5-carbonyl}-2-azabicyclo[2.2.1]heptan-7-amine]
5 | 10 | COc1cc(C(=O)N2CC3CCC2[C@@H]3N)cc2nc(-c3cc4ccccc4n3CC3CC3)n(CC3CN(C(=O)c4ccsc4)C3)c12 (stereo partly drawn) [Example 416, (7R)-2-{2-[1-(cyclopropylmethyl)-1H-indol-2-yl]-7-methoxy-1-{[1-(thiophene-3-carbonyl)azetidin-3-yl]methyl}-1H-1,3-benzodiazole-5-carbonyl}-2-azabicyclo[2.2.1]heptan-7-amine]
6 | 72 | COc1cc(C(=O)N2C[C@H]3CC[C@@H]2[C@@H]3N)cc2nc(-c3cc4cccnc4n3CC3CC3)n(CC3CN(c4ccc(C#N)cc4)C3)c12 [Example 25, 4-[3-({5-[(1R,4R,7R)-7-amino-2-azabicyclo[2.2.1]heptane-2-carbonyl]-2-[1-(cyclopropylmethyl)-1H-pyrrolo[2,3-b]pyridin-2-yl]-7-methoxy-1H-1,3-benzodiazol-1-yl}methyl)azetidin-1-yl]benzonitrile]
7 | 31 | COc1cc(C(=O)N2C[C@H]3CC[C@@H]2[C@@H]3N)cc2nc(-c3cc4ccccc4n3CC3CC3)n(CCCN3CCCC3=O)c12 [Example 254, 1-(3-{5-[(1R,4R,7R)-7-amino-2-azabicyclo[2.2.1]heptane-2-carbonyl]-2-[1-(cyclopropylmethyl)-1H-indol-2-yl]-7-methoxy-1H-1,3-benzodiazol-1-yl}propyl)pyrrolidin-2-one]
8 | 24 | COc1cc(C(=O)N2CC3CCC2[C@@H]3N)cc2nc(-c3cc4ccccc4n3CC3CC3)n(CC3(C)CN(C(=O)c4ccccc4)C3)c12 (stereo partly drawn) [Example 426, (7R)-2-{1-[(1-benzoyl-3-methylazetidin-3-yl)methyl]-2-[1-(cyclopropylmethyl)-1H-indol-2-yl]-7-methoxy-1H-1,3-benzodiazole-5-carobnyl}-2-azabicyclo[2.2.1]heptan-7-amine]
9 | 163 | COc1cc(C(=O)N2C[C@H]3CC[C@@H]2[C@@H]3N)cc2nc(-c3cc4cccnc4n3CC3CC3)n(CC3CN(c4cccc5c4CNC5=O)C3)c12 [Example 55, 4-[3-({5-[(1R,4R,7R)-7-amino-2-azabicyclo[2.2.1]heptane-2-carbonyl]-2-[1-(cyclopropylmethyl)-1H-pyrrolo[2,3-b]pyridin-2-yl]-7-methoxy-1H-1,3-benzodiazol-1-yl}methyl)azetidin-1-yl]-2,3-dihydro-1H-isoindol-1-one]
10 | 263 | COc1cc(C(=O)N2CCC[C@@H](N)C2)cc2nc(-c3cc4cccnc4n3CC3CC3)n(CC3CN(C(=O)c4ccccc4)C3)c12 [Example 413, (3R)-1-{1-[(1-benzoylazetidin-3-yl)methyl]-2-[1-(cyclopropylmethyl)-1H-pyrrolo[2,3-b]pyridin-2-yl]-7-methoxy-1H-1,3-benzodiazole-5-carbonyl}piperidin-3-amine]
11 | 66 | COc1cc(C(=O)N2CC3CCC2[C@@H]3N)cc2nc(-c3cc4cccnc4n3CC3CC3)n(CC3CN(C(=O)c4ccc(C#N)c(F)c4)C3)c12 (stereo partly drawn) [Example 459, 4-[3-({5-[(7R)-7-amino-2-azabicyclo[2.2.1]heptane-2-carbonyl]-2-[1-(cyclopropylmethyl)-1H-pyrrolo[2,3-b]pyridin-2-yl]-7-methoxy-1H-1,3-benzodiazol-1-yl}methyl)azetidine-1-carbonyl]-2-fluorobenzonitrile]
12 | 638 | COc1cc(C(=O)N2C[C@H]3CC[C@@H]2[C@@H]3N)cc2nc(-c3cc4cccnc4n3CC3CC3)n(CC3CN(c4ccccc4C(C)=O)C3)c12 [Example 85, 1-{2-[3-({5-[(1R,4R,7R)-7-amino-2-azabicyclo[2.2.1]heptane-2-carbonyl]-2-[1-(cyclopropylmethyl)-1H-pyrrolo[2,3-b]pyridin-2-yl]-7-methoxy-1H-1,3-benzodiazol-1-yl}methyl)azetidin-1-yl]phenyl}ethan-1-one]
13 | 456 | COc1cc(C(=O)N2CC3CCC2[C@@H]3N)cc2nc(-c3cc4cccnc4n3CC3CC3)n([C@H]3C[C@@H](C(N)=O)C3)c12 (stereo partly drawn) [Example 294, (1s,3s)-3-{5-[(1R,4R,7R)-7-amino-2-azabicyclo[2.2.1]heptane-2-carbonyl]-2-[1-(cyclopropylmethyl)-1H-pyrrolo[2,3-b]pyridin-2-yl]-7-methoxy-1H-1,3-benzodiazol-1-yl}cyclobutane-1-carboxamide]
14 | 157 | COc1cc(C(=O)N2C[C@H]3CC[C@@H]2[C@@H]3N)cc2nc(-c3cc4ccc(Cl)cc4n3CC3CC3)n(CC3CN(c4ccnc(C5CC5)n4)C3)c12 [Example 53, (1R,4R,7R)-2-{2-[6-chloro-1-(cyclopropylmethyl)-1H-indol-2-yl]-1-{[1-(2-cyclopropylpyrimidin-4-yl)azetidin-3-yl]methyl}-7-methoxy-1H-1,3-benzodiazole-5-carbonyl}-2-azabicyclo[2.2.1]heptan-7-amine]
